Results taken from patent US6297230A, “Cyanoaziridines for treating cancer” (priority 2000, dated 2001).
≈ marks a conversion by molar mass, not a printed value. Entries after “also recorded” stand apart in the source; their conditions may differ. Where two headings read alike, the source gives them in different places.

Tests used:
[1] = tested on: L-1210 leukemia cells (sensitive); assay: MTT growth inhibition, sensitive L-1210 leukemia cells; assay type: cell-based, mouse; settings: Sensitive L-1210, drug continuously present 8 days
Description: Tumors are disaggregated into single cell suspensions using mechanical, hypoosmotic, and/or enzymatic (trypsin) methods. The cells are plated at a concentration of 3-5×10^4 per […] well into plastic 96-well plates. Growth medium containing 5-10% (vol/vol) heat-inactivated fetal bovine serum and penicillin/streptomycin (both […]) are added prior to incubation at 37° C. for 6 days. Afterwards the medium containing the drug is removed, the cells are centrifuged in fresh medium or phosphate-buffered saline (pH 7.4). A tetrazolium dye, […]-2,5-diphenyl tetrazolium (MTT), is then added. (Mossman, T., J Immunol 65:55-63, 1983.) This dye forms a colored formazan product upon activation by mitochondrial reductases in viable cells. Typically, the formazan product is solubilized in acid-propanol or DMSO. The intensity of the color is proportional to viable cell numbers and this is quantitated by spectrophotometric absorbance at 570 nm on a micro ELISA plate reader. The results are calibrated in % control absorbance from untreated tumor cells. (Alley, et al., Cancer Res 48:589-601, 1988.) […]
Murine L-1210 Leukemia Cells were first described by Law, et al. from a female DBA/2 mouse exposed to topical methylcholanthrene. (Law, et al., J Natl Cancer Inst 10:179-192, 1949.) The cells represent a lymphocytic lineage and are highly tumorigenic in syngeneic DBA/2 mice, producing lethality typically 10-14 days after inoculation. This cell line has been used extensively to characterize the antitumor activity of chemotherapeutic agents. (Goldin, et al., Cancer Res (Cancer Chemotherapy Screening Data IX) 21:27-92, 1961.) The L-1210 cells have a model 40-41 chromosomes and a very high plating efficiency in suspension cultures in vitro.
*Drug continuously present for 8 days; IC50 measured by MTT dye

8226/I-R myeloma cells = assay: MTT growth inhibition, imexon-resistant 8226 myeloma cells; assay type: cell-based, human; settings: for Cross-resistance with imexon: 8226 imexon-resistant vs parental; for IC50 / Fold Resistance of IC50 R/IC50 's: Table 5; for IC50: imexon-resistant 8226; for Fold Resistance of IC50 R/IC50 's: imexon-resistant vs sensitive 8226
Description: (§1) Microculture Tetrazolium (MTT) Assay for Tumor Cells
(§2) Tumors are disaggregated into single cell suspensions using mechanical, hypoosmotic, and/or enzymatic (trypsin) methods. The cells are plated at a concentration of 3-5×10^4 per […] well into plastic 96-well plates. Growth medium containing 5-10% (vol/vol) heat-inactivated fetal bovine serum and penicillin/streptomycin (both […]) are added prior to incubation at 37° C. for 6 days. Afterwards the medium containing the drug is removed, the cells are centrifuged in fresh medium or phosphate-buffered saline (pH 7.4). A tetrazolium dye, […]-2,5-diphenyl tetrazolium (MTT), is then added. (Mossman, T., J Immunol 65:55-63, 1983.) This dye forms a colored formazan product upon activation by mitochondrial reductases in viable cells. Typically, the formazan product is solubilized in acid-propanol or DMSO. The intensity of the color is proportional to viable cell numbers and this is quantitated by spectrophotometric absorbance at 570 nm on a micro ELISA plate reader. The results are calibrated in % control absorbance from untreated tumor cells. (Alley, et al., Cancer Res 48:589-601, 1988.)
(§3) The following unpublished studies were performed in vitro to develop and characterize a human myeloma cell line with resistance to imexon-induced cytotoxicity. The original (parental) 8226 cell line was developed by Matsuoka, et al. (Matsuoka, et al., Proc Soc Exp Biol Med 125:1246-1250, 1967). It is a lymphoblastoid cell line which stains for lambda light immunoglobulin production. It grows in vitro in suspension culture (non-adherent) and forms tumors when injected into SCID mice. (Skehan, et al., J Natl Cancer Inst 82:1107-1112, 1990.)
(§4) One exciting feature of our novel compounds is, that they work on imexon-resistant cells. An imexon-resistant 8226 myeloma cell line was selected by continuously exposing cells to gradually increasing concentrations of imexon up to 3.25 mg/mL. This cell line has slightly longer cell doubling time than 8226 sensitive cells (24 vs 20 hours). […] The dose response curve for imexon continuous exposure was determined using MTT assay. Each data point represents the mean of three experiments performed in 8 replicates.
(§5) We compared IC50 concentrations and there is a 4-fold resistance observed for the 8226/I-R cell line when the cells were continuously exposed to imexon for […] at 37° C. The degree of resistance was relatively unstable in the absence of the drug, with the resistant cells losing substantial resistance when maintained in imexon-free medium for 20 weeks (FIG. 2).
(§6) IC50 was measured by MTT assay. IC50 refer to the concentration by drug that results in 50% growth inhibition. A minimum of 2 assays were performed for each drug following 250 mg/mL imexon is equivalent to 6.5 cGy radiation in sensitive cells.
(§7) Using the colorimetric microculture tetrazolium (MTT) assay, imexon and 25-related analogs were studied for tumor growth inhibition in vitro. Imexon-induced DNA single strand breaks were assessed by alkaline elution. Cells were exposed to imexon for 1 hour prior to start of experiment. The fraction of ^14 C-labeled DNA retained on the filter is plotted against the time of elution. The cells included parental 8226 myeloma cells and the 8226 imexon-resistant cells exposed to drug (imexon or analog) continuously for 10 days at 37° C. At the end of the exposure period, the cells were analyzed for viability using the formazan-forming tetrazolium dye (MTT) assay.

8226/S myeloma cells = assay: MTT growth inhibition, parental 8226 myeloma cells; assay type: cell-based, human; settings: for IC50: Table 5, Sensitive (parental) 8226; for Potency relative to imexon: myeloma cells; for Enhanced potency: decrease in IC50 against myeloma cell growth: compared with imexon; for Antitumor effect: parental and imexon-resistant myeloma cells
Description: as §1, §2, §3, §4, §5, §6, §7

[2] = Mus musculus, L1210, 192 h, read-out: IC50

| Structure (SMILES) | IC50 [1, 2] | Cross-resistance with imexon (8226/I-R myeloma cells) | IC50 (8226/I-R myeloma cells; Homo sapiens, read-out: IC50) | Fold Resistance of IC50 R/IC50 's (8226/I-R myeloma cells) | IC50 (8226/S myeloma cells; Homo sapiens, read-out: IC50) | Potency relative to imexon (8226/S myeloma cells) | Enhanced potency: decrease in IC50 against myeloma cell growth (8226/S myeloma cells) | Antitumor effect (8226/S myeloma cells) | IC50 [1] | IC50 (8226/I-R myeloma cells) | IC50 (8226/S myeloma cells) |
| --- | --- | --- | --- | --- | --- | --- | --- | --- | --- | --- | --- |
| N#CC1CN1C(=O)Nc1ccc(C(F)(F)F)cc1 (centres unmarked) [AMP 416, 2-Cyanoaziridine-1-[N-(4-trifluorophenyl)]carboxamide] | 2 µg/mL (≈ 7.84 µM) | lack of significant (>50% IC50 change) cross-resistance with imexon; also recorded: no significant cross resistance | 2 µg/mL (≈ 7.84 µM) | 0.95 | 2.1 µg/mL (≈ 8.23 µM) | roughly equal potency to imexon | – | – | – | – | – |
| CCOC(=O)c1ccc(NC(=O)N2CC2C#N)cc1 (centres unmarked) [AMP 419, 2-Cyanoaziridine-1-[N-(4-ethoxycarbonylphenyl)]carboxamide] | 2.5 µg/mL (≈ 9.64 µM) | lack of significant (>50% IC50 change) cross-resistance with imexon | – | – | – | – | – | – | – | – | – |
| N#CC1CN1C(=O)Nc1ccc(Cl)cc1Cl (centres unmarked) [AMP 407, 2-Cyanoaziridine-1-[N-(2,4-dichlorophenyl)]carboxamide] | 52.3 µg/mL (≈ 204 µM) | – | 2.4 µg/mL (≈ 9.37 µM) | 2.0 | 1.2 µg/mL (≈ 4.69 µM) | – | > 40% | – | – | – | – |
| N#CC1CN1C(=O)Nc1ccc(S(N)(=O)=O)cc1 (centres unmarked) [AMP 422, 2-Cyanoaziridine-1-[N-(4-sulfamylphenyl)]carboxamide] | > 10 µg/mL | – | < 100 µg/mL | – | > 100 µg/mL | – | – | no antitumor effects even at high concentrations | – | – | – |
| N#CC1CN1C(=O)NC1CCCCC1 (centres unmarked) [AMP 413, 2-Cyanoaziridine-1-(N-cyclohexyl)carboxamide] | 1.4 µg/mL (≈ 7.24 µM) | – | 19 µg/mL (≈ 98.3 µM) | – | 7 µg/mL (≈ 36.2 µM) | – | – | – | – | – | – |
| N#CC1CN1C(=O)Nc1ccc(F)cc1 (centres unmarked) [AMP 415, 2-Cyanoaziridine-1-[N-(4-fluorophenyl)]carboxamide] | 1.5 µg/mL (≈ 7.31 µM) | lack of significant (>50% IC50 change) cross-resistance with imexon; also recorded: no significant cross resistance | 1.2 µg/mL (≈ 5.85 µM) | 1.2 | 1 µg/mL (≈ 4.87 µM) | roughly equal potency to imexon | > 40% | – | – | – | – |
| CNC(=O)N1CC1C#N (centres unmarked) [AMP 403, 2-Cyanoaziridine-1-(N-methyl)carboxamide] | 1.1 µg/mL (≈ 8.79 µM) | lack of significant (>50% IC50 change) cross-resistance with imexon | 3.3 µg/mL (≈ 26.4 µM) | 1.0 | 3.3 µg/mL (≈ 26.4 µM) | – | – | – | – | – | – |
| N#CC1CN1C(=O)Nc1cccc2ccccc12 (centres unmarked) [AMP 423, 2-Cyanoaziridine-1-[N-(1-naphthyl)]carboxamide] | 1.7 µg/mL (≈ 7.17 µM) | – | 2.1 µg/mL (≈ 8.85 µM) | 2.1 | 1 µg/mL (≈ 4.21 µM) | – | > 40% | – | – | – | – |
| N#CC1CN1C(=O)Nc1ccc([N+](=O)[O-])cc1 (centres unmarked) [AMP 417, 2-Cyanoaziridine-1-[N-(4-nitrophenyl)]carboxamide] | 0.6 µg/mL (≈ 2.58 µM) | lack of significant (>50% IC50 change) cross-resistance with imexon; also recorded: no significant cross resistance | 2 µg/mL (≈ 8.61 µM) | 0.95 | 2.1 µg/mL (≈ 9.04 µM) | roughly equal potency to imexon | – | – | – | – | – |
| CC(=O)c1cccc(NC(=O)N2CC2C#N)c1 (centres unmarked) [AMP 425, 2-Cyanoaziridine-1-[N-(3-acetylphenyl)]carboxamide] | 2.2 µg/mL (≈ 9.6 µM) | lack of significant (>50% IC50 change) cross-resistance with imexon; also recorded: no significant cross resistance | 2.2 µg/mL (≈ 9.6 µM) | 1.1 | 1.98 µg/mL (≈ 8.64 µM) | roughly equal potency to imexon | – | – | – | – | – |
| CCCCNC(=O)N1CC1C#N (centres unmarked) [AMP 414, 2-Cyanoaziridine-1-(N-butyl)carboxamide] | 2 µg/mL (≈ 12 µM) | lack of significant (>50% IC50 change) cross-resistance with imexon | 2.8 µg/mL (≈ 16.7 µM) | 1.0 | 2.8 µg/mL (≈ 16.7 µM) | – | – | – | – | – | – |
| N#CC1CN1C(=O)NCc1ccccc1 (centres unmarked) [AMP 412, 2-Cyanoaziridine-1-(N-benzyl)carboxamide] | 0.8 µg/mL (≈ 3.98 µM) | lack of significant (>50% IC50 change) cross-resistance with imexon; also recorded: no significant cross resistance | 2.2 µg/mL (≈ 10.9 µM) | 1.2 | 1.8 µg/mL (≈ 8.95 µM) | roughly equal potency to imexon | – | – | – | – | – |
| CC(=O)Oc1ccccc1NC(=O)N1CC1C#N (centres unmarked) [AMP 424, 2-Cyanoaziridine-1-[N-(2-acetoxyphenyl)]carboxamide] | – | – | – | – | – | – | – | no antitumor effects even at high concentrations | > 10 µg/mL | > 100 µg/mL | > 100 µg/mL |
| N#CC1CN1C(=O)Nc1ccccc1 (centres unmarked) [AMP 404, 2-Cyanoaziridine-1-(N-phenyl)carboxamide] | 0.2 µg/mL (≈ 1.07 µM) | lack of significant (>50% IC50 change) cross-resistance with imexon | 1.5 µg/mL (≈ 8.01 µM) | 1.5 | 1 µg/mL (≈ 5.34 µM) | – | – | – | – | – | – |
| N#CC1CN1C(=O)Nc1cccnc1 (centres unmarked) [AMP 421, 2-Cyanoaziridine-1-[N-(3-pyridyl)]carboxamide] | 2.3 µg/mL (≈ 12.2 µM) | lack of significant (>50% IC50 change) cross-resistance with imexon | 2.8 µg/mL (≈ 14.9 µM) | 1.3 | 2.2 µg/mL (≈ 11.7 µM) | – | – | – | – | – | – |
